By IC50 is commonly meant the concentration at which inhibition is half-maximal.

Assay [1] deals with RS4;11 leukaemia tumour line. Nature of the assay: In vitro cytotoxicity, Microculture Tetrazolium Assay (MTT). Type of assay: cell-based. The note with it: Homo sapiens; RS4;11 cells, 48 hours exposure. The protocol: The cytotoxicity studies were carried out on the RS4;11 leukaemia tumour line.
The cells are distributed onto microplates and exposed to the test compounds for 48 hours. The cell viability is then quantified by a colorimetric assay, the Microculture Tetrazolium Assay (Cancer Res., 1987, 47, 939-942).

Another assay has as its target Bcl-2 protein (histag-Bcl-2, UniProtKB P10415) (Homo sapiens (Human), UniProt P10415). The experiment in a line: Inhibition of Bcl-2 by the fluorescence polarisation technique. Type of assay: binding. The settings on record: fluorescence polarisation test; method A, or method B where underlined (underlining not visible); read-out: IC50 (nM) Bcl-2 FP. The source says:
Inhibition of Bcl-2 by the fluorescence polarisation technique
For orientation: Fluorescence polarisation rises when a labelled molecule tumbles more slowly, as on binding a larger partner.

Structures can show the parent of a compound that is named as a salt.

Sequence of Bcl-2 protein (P10415 whole entry): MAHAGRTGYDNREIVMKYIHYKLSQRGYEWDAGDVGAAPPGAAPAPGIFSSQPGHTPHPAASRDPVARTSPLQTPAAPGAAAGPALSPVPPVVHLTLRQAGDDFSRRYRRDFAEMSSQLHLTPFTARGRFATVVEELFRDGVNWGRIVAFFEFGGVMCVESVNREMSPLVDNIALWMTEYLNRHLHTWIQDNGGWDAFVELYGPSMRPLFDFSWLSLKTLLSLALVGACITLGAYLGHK

Consider `Cc1cc(C(=O)N(c2ccccc2)c2ccc(O)cc2)cn1-c1cc(Cl)c(F)cc1C(=O)N1Cc2ccccc2C[C@H]1CN1CCN(C)CC1` [Example 28, 1-(5-Chloro-4-fluoro-2-{[(3S)-3-[(4-methylpiperazin-1-yl)methyl]-3,4-dihydroisoquinolin-2(1H)-yl]carbonyl}phenyl)-N-(4-hydroxyphenyl)-5-methyl-N-phenyl-1H-pyrrole-3-carboxamide], for which the 50% inhibitory concentration (IC50) is 378 nM in assay [1] and 8 nM at Bcl-2 protein.

`Cc1cc(C(=O)N(c2ccccc2)c2ccc(O)cc2)cn1-c1ccc(Br)cc1C(=O)N1Cc2ccccc2C[C@H]1CN1CCN(C)CC1` [Example 29, 1-(4-Bromo-2-{[(3S)-3-[(4-methylpiperazin-1-yl)methyl]-3,4-dihydroisoquinolin-2(1H)-yl]carbonyl}phenyl)-N-(4-hydroxyphenyl)-5-methyl-N-phenyl-1H-pyrrole-3-carboxamide]: the IC50 in assay [1] stood at 1010 nM; at Bcl-2 protein, 44.6 nM.

`CN1CCN(C[C@@H]2Cc3ccccc3CN2C(=O)c2cc3c(cc2-n2cc(C(=O)N(c4ccc(O)cc4)c4ccc(Cl)cc4)c4ccccc42)OCO3)CC1` [Example 31, N-(4-Chlorophenyl)-N-(4-hydroxyphenyl)-1-(6-{[(3S)-3-[(4-methylpiperazin-1-yl)methyl]-3,4-dihydroisoquinolin-2(1H)-yl]carbonyl}-1,3-benzodioxol-5-yl)-1H-indole-3-carboxamide]: the IC50 in assay [1] was 71.4 nM; on Bcl-2 protein, 5.5 nM.

For the compound `Cc1ccc(N(C(=O)c2cn(-c3cc4c(cc3C(=O)N3Cc5ccccc5C[C@H]3CN3CCN(C)CC3)OCO4)c3ccccc23)c2ccc(O)cc2)cc1` [Example 32, N-(4-Hydroxyphenyl)-N-(4-methylphenyl)-1-(6-{[(3S)-3-[(4-methylpiperazin-1-yl)methyl]-3,4-dihydroisoquinolin-2(1H)-yl]carbonyl}-1,3-benzodioxol-5-yl)-1H-indole-3-carboxamide], the half-inhibitory concentration (IC50) amounted to 63.7 nM in assay [1] and 3.5 nM at Bcl-2 protein.

In the case of `CCCCN(C(=O)c1cn(-c2cc3c(cc2C(=O)N2Cc4ccccc4C[C@H]2CN2CCN(C)CC2)OCO3)c2ccccc12)c1ccc(O)cc1` [Example 33, N-Butyl-N-(4-hydroxyphenyl)-1-(6-{[(3S)-3-[(4-methylpiperazin-1-yl)methyl]-3,4-dihydroisoquinolin-2(1H)-yl]carbonyl}-1,3-benzodioxol-5-yl)-1H-indole-3-carboxamide], the IC50 in assay [1] was 199 nM; at Bcl-2 protein, 4.4 nM.

Turning to `CN1CCN(C[C@@H]2Cc3ccccc3CN2C(=O)c2cc3c(cc2-n2cc(C(=O)N(c4ccccc4)c4ccc(O)c(F)c4)c4ccccc42)OCO3)CC1` [Example 34, N-(3-Fluoro-4-hydroxyphenyl)-1-(6-{[(3S)-3-[(4-methylpiperazin-1-yl)methyl]-3,4-dihydroisoquinolin-2(1H)-yl]carbonyl}-1,3-benzodioxol-5-yl)-N-phenyl-1H-indole-3-carboxamide], the IC50 in assay [1] stood at 133 nM; at Bcl-2 protein, 7.7 nM.

On to `CN1CCN(C[C@@H]2Cc3ccccc3CN2C(=O)c2cc3c(cc2-n2cc(C(=O)N(c4ccc(O)cc4)c4ccc(F)cc4)c4ccccc42)OCO3)CC1` [Example 35, N-(4-Fluorophenyl)-N-(4-hydroxyphenyl)-1-(6-{[(3S)-3-[(4-methylpiperazin-1-yl)methyl]-3,4-dihydroisoquinolin-2(1H)-yl]carbonyl}-1,3-benzodioxol-5-yl)-1H-indole-3-carboxamide], for which the IC50 in assay [1] stood at 68.9 nM; at Bcl-2 protein it was 3.5 nM.

Regarding `CN1CCN(C[C@@H]2Cc3ccccc3CN2C(=O)c2cc3c(cc2-n2cc(C(=O)N(CCc4ccccc4)c4ccc(Cl)cc4)c4ccccc42)OCO3)CC1` [Example 36, N-(4-Chlorophenyl)-1-(6-{[(3S)-3-[(4-methylpiperazin-1-yl)methyl]-3,4-dihydroisoquinolin-2(1H)-yl]carbonyl}-1,3-benzodioxol-5-yl)-N-(2-phenylethyl)-1H-indole-3-carboxamide], the IC50 stood at 2420 nM in assay [1] and 1110 nM at Bcl-2 protein.

In the case of `CN1CCN(C[C@@H]2Cc3ccccc3CN2C(=O)c2cc3c(cc2-n2cc(C(=O)N(c4ccc(O)cc4)c4ccc5[nH]ccc5c4)c4ccccc42)OCO3)CC1` [Example 37, N-(4-Hydroxyphenyl)-N-(1H-indol-5-yl)-1-(6-{[(3S)-3-[(4-methylpiperazin-1-yl)methyl]-3,4-dihydroisoquinolin-2(1H)-yl]carbonyl}-1,3-benzodioxol-5-yl)-1H-indole-3-carboxamide], the results for the IC50 (in assay [1]; on Bcl-2 protein) were 47.1 nM and 3.8 nM, respectively.

In the case of `Cc1cc(C(=O)N(c2ccccc2)c2ccc(O)cc2)cn1-c1cc(Br)ccc1C(=O)N1Cc2ccccc2C[C@H]1CN1C[C@H]2CCC[C@H]2C1` [Example 38, 1-(5-Bromo-2-{[(3S)-3-[(3aR,6aS)-hexahydrocyclopenta[c]pyrrol-2(1H)-ylmethyl]-3,4-dihydroisoquinolin-2(1H)-yl]carbonyl}phenyl)-N-(4-hydroxyphenyl)-5-methyl-N-phenyl-1H-pyrrole-3-carboxamide], the half-maximal inhibitory concentration (IC50) in assay [1] turned out to be 1780 nM; on Bcl-2 protein it was 238 nM.

Turning to `CN1CCN(C[C@@H]2Cc3ccccc3CN2C(=O)c2cc3c(cc2-n2cc(C(=O)N(c4ccc(O)cc4)c4cccc(Oc5ccccc5)c4)c4ccccc42)OCO3)CC1` [Example 39, N-(4-Hydroxyphenyl)-1-(6-{[(3S)-3-[(4-methylpiperazin-1-yl)methyl]-3,4-dihydroisoquinolin-2(1H)-yl]carbonyl}-1,3-benzodioxol-5-yl)-N-(3-phenoxyphenyl)-1H-indole-3-carboxamide hydrochloride], the IC50 was determined as 263 nM in assay [1] and 12.5 nM on Bcl-2 protein.

In the case of `CN1CCN(C[C@@H]2Cc3ccccc3CN2C(=O)c2cc3c(cc2-n2cc(C(=O)N(CCc4ccccc4)c4ccc(O)cc4)c4ccccc42)OCO3)CC1` [Example 40, N-(4-Hydroxyphenyl)-1-(6-{[(3S)-3-[(4-methylpiperazin-1-yl)methyl]-3,4-dihydroisoquinolin-2(1H)-yl]carbonyl}-1,3-benzodioxol-5-yl)-N-(2-phenylethyl)-1H-indole-3-carboxamide], the results for the IC50 (in assay [1]; on Bcl-2 protein) were 167 nM and 7.8 nM, respectively.

In the case of `CN1CCN(C[C@@H]2Cc3ccccc3CN2C(=O)c2cc3c(cc2-n2cc(C(=O)N(c4ccc(O)cc4)c4ccc(O)cc4)c4ccccc42)OCO3)CC1` [Example 41, N,N-bis(4-Hydroxyphenyl)-1-(6-{[(3S)-3-[(4-methylpiperazin-1-yl)-methyl]-3,4-dihydroisoquinolin-2(1H)-yl]carbonyl}-1,3-benzodioxol-5-yl)-1H-indole-3-carboxamide], the IC50 was determined as 52.2 nM in assay [1] and 3.7 nM on Bcl-2 protein.

In the case of `Cc1cc(C(=O)N(c2ccccc2)c2ccc(O)cc2)cn1-c1cc(Br)ccc1C(=O)N1Cc2ccccc2C[C@H]1CN1CCOCC1` [Example 42, 1-(5-Bromo-2-{[(3S)-3-(morpholin-4-ylmethyl)-3,4-dihydroisoquinolin-2(1H)-yl]carbonyl}phenyl)-N-(4-hydroxyphenyl)-5-methyl-N-phenyl-1H-pyrrole-3-carboxamide], the values for the IC50 (in assay [1]; at Bcl-2 protein) were 353 nM and 23.1 nM, respectively.

`CN1CCN(C[C@@H]2Cc3ccccc3CN2C(=O)c2cc3c(cc2-n2cc(C(=O)N(c4ccc(O)cc4)c4ccc5sccc5c4)c4ccccc42)OCO3)CC1` [Example 43, N-(1-Benzothiophen-5-yl)-N-(4-hydroxyphenyl)-1-(6-{[(3S)-3-[(4-methylpiperazin-1-yl)methyl]-3,4-dihydroisoquinolin-2(1H)-yl]carbonyl}-1,3-benzodioxol-5-yl)-1H-indole-3-carboxamide]: the IC50 in assay [1] was found to be 101 nM; at Bcl-2 protein, 7.2 nM.

In the case of `CN1CCN(C[C@@H]2Cc3ccccc3CN2C(=O)c2cc3c(cc2-n2cc(C(=O)N(c4ccc(O)cc4)c4ccc5occc5c4)c4ccccc42)OCO3)CC1` [Example 44, N-(1-Benzofuran-5-yl)-N-(4-hydroxyphenyl)-1-(6-{[(3S)-3-[(4-methylpiperazin-1-yl)methyl]-3,4-dihydroisoquinolin-2(1H)-yl]carbonyl}-1,3-benzodioxol-5-yl)-1H-indole-3-carboxamide], the concentration for half-maximal inhibition (IC50) in assay [1] is 164 nM; on Bcl-2 protein, 6.8 nM.

Consider `CN1CCN(C[C@@H]2Cc3ccccc3CN2C(=O)c2cc3c(cc2-n2cc(C(=O)N(c4ccc(O)cc4)c4ccc5c(ccn5C)c4)c4ccccc42)OCO3)CC1` [Example 45, N-(4-Hydroxyphenyl)-N-(1-methyl-1H-indol-5-yl)-1-(6-{[(3S)-3-[(4-methylpiperazin-1-yl)methyl]-3,4-dihydroisoquinolin-2(1H)-yl]carbonyl}-1,3-benzodioxol-5-yl)-1H-indole-3-carboxamide], for which the IC50 stood at 36.5 nM in assay [1] and 6.7 nM at Bcl-2 protein.

`Cc1cc(C(=O)N(c2ccc(O)cc2)c2ccc3[nH]ccc3c2)cn1-c1cc(Br)ccc1C(=O)N1Cc2ccccc2C[C@H]1CN1CCN(C)CC1` [Example 46, 1-(5-Bromo-2-{[(3S)-3-[(4-methylpiperazin-1-yl)methyl]-3,4-dihydroisoquinolin-2(1H)-yl]carbonyl}phenyl)-N-(4-hydroxyphenyl)-N-(1H-indol-5-yl)-5-methyl-1H-pyrrole-3-carboxamide]: the 50% inhibitory concentration (IC50) in assay [1] is 93.4 nM; on Bcl-2 protein, 8.4 nM.

As to `CN1CCN(C[C@@H]2Cc3ccccc3CN2C(=O)c2cc3c(cc2-n2cc(C(=O)N(c4ccc(O)cc4)c4ccc5c(c4)CCN5)c4ccccc42)OCO3)CC1` [Example 47, N-(2,3-Dihydro-1H-indol-5-yl)-N-(4-hydroxyphenyl)-1-(6-{[(3S)-3-[(4-methylpiperazin-1-yl)methyl]-3,4-dihydroisoquinolin-2(1H)-yl]carbonyl}-1,3-benzodioxol-5-yl)-1H-indole-3-carboxamide], the IC50 in assay [1] was determined as 50.3 nM; at Bcl-2 protein it was 9.2 nM.

For the origin of these results see patent US9765056B2, “Indole and pyrrole compounds, a process for their preparation and pharmaceutical compositions containing them” (LES LABORATOIRES SERVIER, priority 2013, dated 2017).
